Experimental data reported in US20200232989A1 (UNIVERSITE D'AIX-MARSEILLE, priority 2017, published 2020).

What was measured:
786 cells = assay: Cell viability/metabolism (XTT) in 786 cells; type: cell-based; conditions: sCD146 50 and 100 ng/ml, 48 h
Procedure: FIG. 4. […] The mRNA levels of CD146 total (A), long (B) and short forms (C) and angiomotin (E) were evaluated by qPCR. D, sCD146 protein in cell supernatants was evaluated by ELISA. […] The cell metabolism was measured by XTT assay. Results are represented as the mean of three independent experiments±SEM.* p<0.05, ** p<0.01, *** p<0.001.
(§1) Fifty microliters of sodium 3′-[1-phenylaminocarbonyl)-3,4-tetrazolium]-bis(4-methoxy-6-nitro) benzene sulfonic acid hydrate (XTT) reagent was added to each well. The assay is based on the cleavage of the yellow tetrazolium salt XTT to form an orange formazan dye by metabolically active cells. The absorbance of the formazan product, reflecting cell viability, was measured at 490 nm. Each assay was performed in quadruplicate.

HUVEC = assay: Cell viability/metabolism (XTT) in HUVEC; type: cell-based; conditions: 48 h
Procedure: FIG. 7. Regulation of expression of CD146 and angiomotin (Amot) is differently regulated in endothelial cells. […] CD146 (A) and angiomotin (B) were analyzed by qPCR. […] The cell metabolism was measured by XTT assay. […] The cell metabolism was measured by XTT assay. Results are represented as the mean of three independent experiments±SEM. * p<0.05, ** p<0.01, *** p<0.001.
as §1

sCD146 = assay: ELISA of sCD146 protein in 786/786R cell supernatants; type: cell-based; conditions: 786R cells; 10 μg/ml, 48 hr
Procedure: D, sCD146 protein in cell supernatants was evaluated by ELISA. […] Results are represented as the mean of three independent experiments±SEM.* p<0.05, ** p<0.01, *** p<0.001.
A, 786 and 786R cells were treated with 10 μg/ml BVZ for 48 hr. sCD146 protein in cell supernatants were evaluated by ELISA. […] Results are represented as the mean of three independent experiments±SEM. * p<0.05, ** p<0.01, *** p<0.001.

[1] = Survival (PFS, OS) of metastatic ccRCC patients in the prospective cohort (SUVEGIL and TORAVA trials), split by sCD146 variation; type: in vivo, human
From the text: Eligible patients for SUVEGIL and TORAVA trials were at least 18 years of age and had metastatic clear cell renal cell carcinoma (ccRCC) histologically confirmed, with the presence of measurable disease according to Response Evaluation Criteria in Solid Tumors (RECIST) v1.1. […] Patients were ineligible if they had symptomatic or uncontrolled brain metastases, an estimated lifetime less than 3 months, uncontrolled hypertension or clinically significant cardiovascular events (heart failure, prolongation of the QTinterval), history of other primary cancer. All patients gave written informed consent.
The prospective cohort includes patients from the SUVEGIL and TORAVA trials.
The SUVEGIL trial (clinicaltrial.gov, NCT00943839) was a multicenter prospective single-arm study. […] Courses repeat every 6 weeks in the absence of disease progression or unacceptable toxicity.
The TORAVA trial (clinicaltrial.gov, NCT00619268) was a randomized prospective study. Patient characteristics and results have been previously described (Negrier et al, 2011).
The % variation of plasmatic level of sCD146 was correlated with OS and PFS, defined respectively as the time from inclusion in the trial to death from all causes (for OS) and to progression, treatment cessation, or death (for PFS), censored at last follow-up for those still alive or who have not progressed.
(§2) PFS was defined as the time between blood sample collection and progression, or death from any cause, censoring those alive and progression free at last follow-up. OS was defined as the time from blood sample collection to the date of death from any cause, censoring those alive at last follow-up.
(§3) The % variation of sCD146 between diagnosis and after 1 cycle of suntinib cut-off point was determined at 120%. Kaplan Meier method was used to produce survival curves and analyses of censored data were performed using Cox models.

[2] = PFS of patients in the retrospective validation cohort, split by sCD146 variation; type: in vivo, human; conditions: retrospective/confirmation cohort
Procedure: 13 patients from the HEPG (France) (50 mg/day, once daily for four weeks) were analyzed retrospectively.
as §2, §3

[3] = patients with sCD146 plasmatic level increase ≥120% between diagnosis and first cycle of treatment
[4] = patients with sCD146 variation <120% between diagnosis and first cycle of treatment

Molecule	effect on sunitinib-dependent decrease of cell metabolism (786 cells; 786 cells treated with 2.5 or 5 μM sunitinib)	cell metabolism (786 cells; 786 cells)	protection from sunitinib (HUVEC; HUVEC treated with sunitinib, recombinant sCD146 50 or 100 ng/ml)	proliferation of HUVEC (HUVEC; HUVEC, recombinant sCD146 50 or 100 ng/ml)	sCD146 secretion (sCD146)	median OS ([1]; patients with sCD146 <120%)	median PFS [1, 3]	median PFS [1, 4]	median OS ([1]; patients with sCD146 ≥120%)	PFS ([2]; patients with modulation of sCD146 <120%)	PFS ([2]; patients with sCD146 ≥120%)	decrease in cell proliferation (HUVEC; HUVEC, 1 or 2 μM)
sCD146: soluble form of CD146 generated by shedding of the membrane form; used as recombinant protein in cell assays	prevents sunitinib-dependent decreased cell metabolism	increased cell metabolism at both concentrations	did not protect HUVEC from sunitinib	stimulated the proliferation of HUVEC								
bevacizumab					no increase in sCD146 secretion	24.4 months	10.5 months	10.7 months	24.1 months			
CCN(CC)CCNC(=O)c1c(C)[nH]c(/C=C2\C(=O)Nc3ccc(F)cc32)c1C [sunitinib]							5.7 months	20.5 months	11 months	24.8 months	2.3 months	about 50%
